The values below come from patent US9512120B2, “Microbicidally active imidazopyridine derivatives” (Syngenta Participations AG, priority 2013, dated 2016).

As usually defined, the inhibition is the drop in the measured response relative to a control, in per cent. In general, melting point refers to the temperature of the solid-liquid transition.

The subject of series [1] is Phaeosphaeria nodorum (Septoria nodorum). The series is described as follows: Phaeosphaeria nodorum (Septoria nodorum) / wheat / leaf disc preventative (glume blotch). In kind it is in vivo. The conditions noted are these: Parastagonospora nodorum, foliar, wheat leaf segments cv Kanzler, inoculated 2 days after application, assessed 5-7 days after application, read-out: control of Phaeosphaeria nodorum (percent disease control compared to untreated). In a few lines: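 Wheat leaf segments (cv Kanzler) on agar sprayed with compound at 200 ppm, inoculated with spores 2 days later. Incubated at 20° C., 75% relative humidity, 12/12 h light/dark; percent disease control versus untreated scored 5-7 days after application.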

Another series relates to Gaeumannomyces graminis. The series is described as follows: Gaeumannomyces graminis / liquid culture (take-all of cereals). In kind it is cell-based. The conditions noted are these: PDB, 24° C., 4-5 days after application, read-out: control of Gaeumannomyces graminis (inhibition of growth, photometric). In a few lines:
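Growth inhibition, measured by photometry 4-5 days post-application at 24 °C, of fungal mycelial fragments in PDB broth. Test compound applied as DMSO solution at 200 ppm.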

For series [2], the system named is Mycosphaerella graminicola (Septoria tritici). Put plainly: Mycosphaerella graminicola (Septoria tritici) / liquid culture (Septoria blotch). Format: cell-based. Conditions: Zymoseptoria tritici, PDB, 24° C., 4-5 days after application, read-out: control of Mycosphaerella graminicola (inhibition of growth, photometric). A digest of the protocol:
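Growth inhibition was read photometrically after 4–5 days at 24 °C. The test compound was applied at 200 ppm from DMSO solution, then PDB broth seeded with conidia taken straight from cryogenic storage was added.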

The subject of a further series is Pyrenophora teres. Put plainly: Pyrenophora teres / barley / leaf disc preventative (net blotch). Format: in vivo. The conditions noted are these: foliar, barley leaf segments cv Hasso, inoculated two days after application, assessed 5-7 days after application, read-out: control of Pyrenophora teres (disease control compared to untreated). In a few lines:
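Preventative leaf-disc test: 200 ppm spray, then spore inoculation after two days on barley cv Hasso segments. Incubation 20 °C, 65% relative humidity, 12 h light/12 h dark; efficacy rated against untreated checks at 5-7 days post-application.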

Series [3] has as its system Puccinia recondita f. sp. Tritici. The series is described as follows: Puccinia recondita f. sp. tritici / wheat / leaf disc preventative (brown rust). In kind it is in vivo. Conditions: foliar, wheat leaf segments cv Kanzler, inoculated 1 day after application, assessed 7-9 days after application, read-out: control of Puccinia recondita f. sp. Tritici (percent disease control compared to untreated). A digest of the protocol:
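Preventative test: percent disease control relative to untreated leaf segments was assessed 7-9 days post-application. Wheat (cv Kanzler) leaf discs were treated at 200 ppm and spore-inoculated 1 day afterwards. Discs were held at 19° C and 75% relative humidity under a 12/12 h light cycle.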

Series [4] concerns Thanatephorus cucumeris (Rhizoctonia solani). The series is described as follows: Thanatephorus cucumeris (Rhizoctonia solani) / liquid culture (foot rot, damping-off). Format: cell-based. The conditions noted are these: PDB, 24° C., 3-4 days after application, read-out: control of Thanatephorus cucumeris (inhibition of growth, photometric). In a few lines: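 At 200 ppm, compounds in DMSO were combined with fresh liquid-culture mycelia in PDB and kept at 24° C; photometric measurement of growth inhibition after 3-4 days.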

The next series has as its system Pythium ultimum. The series is described as follows: Pythium ultimum / liquid culture (seedling damping off). In kind it is cell-based. Conditions: Globisporangium ultimum, potato dextrose broth, 24° C., 2-3 days after application, read-out: control of Pythium ultimum (inhibition of growth, photometric). The protocol: Pythium ultimum/Liquid Culture (Seedling Damping Off) Mycelia fragments and oospores of a newly grown liquid culture of the fungus were directly mixed into nutrient broth (potato dextrose broth). After placing a DMSO solution of test compound into a 96-well format microtiter plate at an application rate of 200 ppm, the nutrient broth containing the fungal mycelia/spore mixture was added. The test plates were incubated at 24° C. and the inhibition of growth was determined photometrically 2-3 days after application.

Series [5] deals with Glomerella lagenarium (Colletotrichum lagenarium). Put plainly: Glomerella lagenarium (Colletotrichum lagenarium) / liquid culture (anthracnose). Format: cell-based. Conditions: Colletotrichum orbiculare, PDB, 24° C., 3-4 days after application, read-out: control of Glomerella lagenarium (inhibition of growth, photometric). A digest of the protocol: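 Test compound, delivered in DMSO at an application rate of 200 ppm, was combined with spore-containing PDB. Photometric growth-inhibition measurement followed 3-4 days of incubation at 24° C.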

The test system of series [6] is Botryotinia fuckeliana (Botrytis cinerea). Put plainly: Botryotinia fuckeliana (Botrytis cinerea) / liquid culture (gray mould). Format: cell-based. The conditions noted are these: Vogels broth, 24° C., 3-4 days after application, read-out: control of Botryotinia fuckeliana (inhibition of growth, photometric). In a few lines: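 Test compound was applied at 200 ppm in DMSO, then Vogels nutrient broth containing cryo-stored B. cinerea conidia was added. Photometric growth-inhibition reading followed after 3-4 days at 24 °C.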

Series [7] relates to Monographella nivalis (Microdochium nivale). Put plainly: Monographella nivalis (Microdochium nivale) / liquid culture (foot rot cereals). In kind it is cell-based. The conditions noted are these: PDB, 24° C., 4-5 days after application, read-out: control of Monographella nivalis (inhibition of growth, photometric). A digest of the protocol: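 Cryostored conidia in potato dextrose broth were added to test compound dispensed from DMSO at 200 ppm. Plates were kept at 24° C, and growth inhibition was read photometrically 4-5 days after application.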

Series [8] has as its system Mycosphaerella arachidis (Cercospora arachidicola). The series is described as follows: Mycosphaerella arachidis (Cercospora arachidicola) / liquid culture (early leaf spot). In kind it is cell-based. The conditions noted are these: PDB, 24° C., 4-5 days after application, read-out: control of Mycosphaerella arachidis (inhibition of growth, photometric). In a few lines:
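Conidia suspended in potato dextrose broth and added to test compound from DMSO solution at 200 ppm. Incubated at 24 °C; growth inhibition read photometrically 4-5 days after application.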

A further series deals with Sclerotinia sclerotiorum. Put plainly: Sclerotinia sclerotiorum liquid culture (cottony rot / white mold). Format: cell-based. The conditions noted are these: PDB, 24° C., 3-4 days after application, read-out: control of Sclerotinia sclerotiorum (inhibition of growth, photometric). A digest of the protocol: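 Mycelia fragments of Sclerotinia sclerotiorum in potato dextrose broth were added to compound in DMSO. Cultures incubated at 24° C; growth inhibition determined photometrically 3-4 days after application.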

A further series relates to Plasmopara viticola. Put plainly: Plasmopara viticola / grape / leaf disc preventative. Format: in vivo. Conditions: foliar, grape vine leaf disks, inoculated 1 day after application, assessed 6-8 days after application, read-out: control of Plasmopara viticola (percent disease control compared to untreated).
Series [9] deals with Blumeria graminis f. Sp. Tritici (Erysiphe graminis f. Sp. Tritici). Put plainly: Blumeria graminis f. sp. tritici / wheat / leaf disc preventative (powdery mildew on wheat). Format: in vivo. Conditions: foliar, wheat leaf segments cv. Kanzler, inoculated 1 day after application, assessed 6-8 days after application, read-out: control of Blumeria graminis (percent disease control compared to untreated). The protocol:
Blumeria graminis f. Sp. Tritici (Erysiphe graminis f. Sp. Tritici)/Wheat/Leaf Disc Preventative (Powdery Mildew on Wheat):
Wheat leaf segments cv. Kanzler were placed on agar in a 24-well plate and sprayed with the formulated test compound diluted in water at an application rate of 200 ppm. The leaf disks were inoculated by shaking powdery mildew infected plants above the test plates 1 day after application. The inoculated leaf disks were incubated at 20° C. and 60% relative humidity under a light regime of 24 h darkness followed by 12 h/12 h (dark/light) in a climate chamber and the activity of a compound was assessed as percent disease control compared to untreated when an appropriate level of disease damage appears on untreated check leaf segments (6-8 days after application). The following compounds gave at least 80% control of Blumeria graminis at 200 ppm when compared to untreated control leaf disks under the same conditions, which show extensive disease development: 2, 13, 23, 50, 59, 61, 67, 75, 85, 86, 89, 90, 93, 102, 103, 107, 134, 136, 137, 138, 139, 141, 145, 151, 153, 154, 163, 173, 174

As for `CCn1c(-n2ncnc2N)nc2cncc(-c3ccoc3)c21` [Compound 55, 2-[1-ethyl-7-(furan-3-yl)imidazo[4,5-c]pyridin-2-yl]-1,2,4-triazol-3-amine], the pest or weed control at 200 ppm (in series [1]; with Pyrenophora teres; in series [3]) was at least 80% in each case. The inhibition at 20 ppm (in the series on Gaeumannomyces graminis; in series [2]; in series [4]; in the series with Pythium ultimum; in series [5]; in [6]) was at least 80% throughout. In addition, the inhibition at 20 ppm in [7] and in series [8] was at least 80% in each case.

As for `CCCc1cncc2nc(-n3ncnc3N)n(CC)c12` [Compound 73, 2-(1-ethyl-7-propylimidazo[4,5-c]pyridin-2-yl)-1,2,4-triazol-3-amine], the pest or weed control at 200 ppm (in [1]; in the series on Pyrenophora teres; in series [3]) was at least 80% each time. Also, the inhibition at 20 ppm (in the series on Gaeumannomyces graminis; in series [2]; in [4]; in the series with Pythium ultimum; in [6]; in series [7]) was at least 80% each time. Besides, the inhibition at 20 ppm (in the series on Sclerotinia sclerotiorum; in [8]) was at least 80% each time.

For `CCn1c(-n2ncnc2N)nc2cncc(C(C)=NOCc3ccccc3F)c21` [Compound 137], the melting point was in the range of 159 to 171 °C. Further, the pest or weed control at 200 ppm with Plasmopara viticola was at least 80%. The pest or weed control at 200 ppm in series [1] is at least 80%. Besides, the inhibition at 20 ppm with Gaeumannomyces graminis was at least 80%. Further, the inhibition at 20 ppm in series [2] was at least 80%. Besides, the pest or weed control at 200 ppm in the series with Pyrenophora teres is at least 80%. Besides, in series [3], the pest or weed control at 200 ppm was at least 80%. Moreover, in [4], the inhibition at 20 ppm was at least 80%. For the same compound, the inhibition at 20 ppm in series [5] is at least 80%. Besides, in [9], the pest or weed control at 200 ppm is at least 80%. In addition, in [6], the inhibition at 20 ppm is at least 80%. The inhibition at 20 ppm in [7] is at least 80%. In the series on Sclerotinia sclerotiorum, the inhibition at 20 ppm was at least 80%.

For `CCn1c(-n2ncnc2N)nc2cncc(C(C)=NOCc3ccc(C)cc3)c21` [Compound 139], the pest or weed control at 200 ppm (in the series with Plasmopara viticola; in the series on Pyrenophora teres; in series [3]; in series [9]) was at least 80% throughout. Moreover, the inhibition at 20 ppm (with Gaeumannomyces graminis; in series [2]; in series [4]; in series [5]; in [6]; in [7]) was at least 80% each time. For the same compound, the inhibition at 20 ppm (with Sclerotinia sclerotiorum; in [8]) was at least 80% each time.

As for `CCn1c(-n2ncnc2N)nc2cncc(C(C)=NOCc3ccc(Cl)cc3)c21` [Compound 145], the pest or weed control at 200 ppm (in the series on Plasmopara viticola; in series [1]; in the series with Pyrenophora teres; in series [3]; in series [9]) was at least 80% in each case. Besides, the inhibition at 20 ppm (in [2]; in [4]; in series [5]; in series [6]; in series [7]; in the series with Sclerotinia sclerotiorum) was at least 80% each time.

Take `C=C(Cl)CO/N=C(/C)c1cncc2nc(-n3ncnc3N)n(CC)c12` [Compound 151]: the pest or weed control at 200 ppm (with Plasmopara viticola; in [1]; in the series on Pyrenophora teres; in series [3]; in series [9]) was at least 80% throughout. The inhibition at 20 ppm (in series [2]; in series [4]; in series [5]; in [6]; in [7]; in the series on Sclerotinia sclerotiorum) was at least 80% throughout.

Consider `CCn1c(-n2ncnc2N)nc2cncc(C(C)=NOCc3c(F)c(F)c(F)c(F)c3F)c21` [Compound 163], for which the pest or weed control at 200 ppm (in the series with Plasmopara viticola; with Pyrenophora teres; in [3]; in series [9]) was at least 80% in each case. Besides, the inhibition at 20 ppm in [2], in series [4], in [5], in [6] and in [8] was at least 80% throughout.

On to `CCCc1cncc2nc(-n3ncnc3N)n(CCC)c12` [Compound 190, 2-(1,7-dipropylimidazo[4,5-c]pyridin-2-yl)-1,2,4-triazol-3-amine], for which the pest or weed control at 200 ppm (in series [1]; in the series with Pyrenophora teres; in series [3]) was at least 80% throughout. Also, the inhibition at 20 ppm (with Gaeumannomyces graminis; in series [2]; in [4]; in the series on Pythium ultimum; in [6]; in series [7]) was at least 80% each time. The inhibition at 20 ppm in the series with Sclerotinia sclerotiorum is at least 80%.
